The target of test [1] is T1, binding of His-XIAP(BIR2)-avi fusion protein to GST-RIPK2 fusion protein (RIPK2/XIAP) (Homo sapiens, UniProt O43353).
T1 construct: made in house; host or cells: baculovirus infected Sf9 cells
Put plainly: RIPK2-XIAP binding competition PPI assay (TR-FRET). As to conditions: RIPK2/XIAP binding competition PPI assay; for Emax: Amax, read-out: PPI Amax bin; for IC50: read-out: PPI IC50 bin. The essentials: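 Compounds (in DMSO, 100-fold stock) incubated 120 min at 23 °C with 1 nM GST-RIPK2 (aa 1-310) and 25 nM His-XIAP(BIR2 aa 152-231)-avi, plus anti-His-XL665 and anti-GST-Tb, in pH 7.5 Tris buffer. Read-out: 665/520 nm emission ratio. Normalized to no-inhibitor (0%) and 50 nM GSK583 (−100%); Amax binned A–D.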
(TR-FRET usually uses a lanthanide donor and a delayed reading to cut background.)

The target of test [2] is T2, GST-RIPK2 fusion protein (human RIPK2, amino acids 1-310) (Homo sapiens, UniProt O43353).
T2 construct: made in house; host or cells: baculovirus infected Sf9 cells
T2 sequence (O43353 1-310): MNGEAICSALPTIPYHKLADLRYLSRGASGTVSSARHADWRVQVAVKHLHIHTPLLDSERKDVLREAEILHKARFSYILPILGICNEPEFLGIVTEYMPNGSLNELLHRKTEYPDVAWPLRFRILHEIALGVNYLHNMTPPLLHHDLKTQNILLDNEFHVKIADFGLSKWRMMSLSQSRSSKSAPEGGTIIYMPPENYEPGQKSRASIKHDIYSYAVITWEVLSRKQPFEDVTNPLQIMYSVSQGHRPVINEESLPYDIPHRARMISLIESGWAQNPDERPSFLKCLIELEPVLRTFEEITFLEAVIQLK
Put plainly: RIPK2 binding competition assay (TR-FRET, Tracer 199 displacement). Particulars: 10 nM Tracer 199, 1 nM GST-RIPK2, read-out: RIPK2 IC50. The essentials: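 GST-RIPK2 (human aa 1-310, Sf9-expressed; final 1 nM) with Tracer 199 (final 10 nM) and Tb-anti-GST (final 0.5 nM) in Tris pH 7.5 buffer, 45 min at 22 °C. TR-FRET 665/620 nm ratio after 337 nm excitation; normalized to no-inhibitor (0%) and no-protein (−100%), giving IC50.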

In test [3] the test system is NF-κB pathway (SEAP) in THP1-Dual cells. Nature of the test: THP-1 Dual cell SEAP assay (L18-MDP stimulated). The class given is cell-based. As to conditions: Homo sapiens, THP1-Dual, read-out: NF-κB THP1 IC50 bin. A digest of the protocol:
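THP1-Dual cells (~25,000/well) were preincubated 30 min with serially diluted compounds, then stimulated with 10 ng/mL L18-MDP (final) for 20-24 h at 37 °C. Supernatant SEAP was read with QUANTI-Blue at OD 620-655 nm after 2 h. IC50 came from non-linear fits of % inhibition versus DMSO/L18-MDP controls after media-blank subtraction.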

Our source for the Emax and IC50 values is patent US20260137706A1, “METHODS OF TREATING INFLAMMATORY DISEASES” (INTERLINE THERAPEUTICS, INC., priority 2023, published 2026).

T1 sequence (O43353 1-310 limits assumed): as the sequence (O43353 1-310) above

Usually IC50 stands for the point on the concentration scale where inhibition reaches its midpoint. With `CC(C)(C)S(=O)(=O)c1cn2c(-c3cc(F)c(N)nc3F)cnc2cc1OCC(F)CO` (stereo not shown) [Example 203, 3-((3-(6-amino-2,5-difluoropyridin-3-yl)-6-(tert-butylsulfonyl)imidazo [1,2-a]pyridin-7-yl)oxy)-2-fluoropropan-1-ol], the Emax in test [1] was above 80%. Moreover, the results for the IC50 in test [1], in test [2] and in test [3] were 1 to 2.5 nM, 1 to 2.5 nM and 50 to 250 nM, respectively.
As to `CC(C)(C)S(=O)(=O)c1cn2c(-c3cc(F)c(N)nc3F)cnc2cc1OCCN1CC(O)C1` [Example 41, 1-(2-((3-(6-amino-2,5-difluoropyridin-3-yl)-6-(tert-butylsulfonyl)imidazo[1,2-a]pyridin-7-yl)oxy)ethyl)azetidin-3-ol], the Emax in test [1] is above 80%. The half-inhibitory concentration (IC50) is 2.5 to 20 nM in test [1], 2.5 to 20 nM in test [2] and above 1000 nM in test [3].
For the compound `CC(N)COc1cc2ncc(-c3cc(Cl)c(N)nc3F)n2cc1S(=O)(=O)C(C)(C)C` (stereo not shown) [Example 239, 5-(7-(2-aminopropoxy)-6-(tert-butylsulfonyl)imidazo [1,2-a]pyridin-3-yl)-3-chloro-6-fluoropyridin-2-amine], the Emax in test [1] was above 80%. For the same compound, the half-maximal inhibitory concentration (IC50) fell in the range of 2.5 to 20 nM in test [1], 2.5 to 20 nM in test [2] and 250 to 1000 nM in test [3].
Regarding `CC(C)(C)S(=O)(=O)c1cc2c(-c3cc4cc[nH]c4nc3F)cnn2cc1OCCO` [Example 215, 2-((5-(tert-butylsulfonyl)-3-(6-fluoro-1H-pyrrolo[2,3-b]pyridin-5-yl)pyrazolo[1,5-a]pyridin-6-yl)oxy)ethan-1-ol], the Emax in test [1] is above 80%. The concentration for half-maximal inhibition (IC50) is below 1 nM in test [1], below 1 nM in test [2] and below 50 nM in test [3].
As for `COc1cc2ncc(-c3cc(F)c(OC)c(NS(=O)(=O)c4cccnc4)c3)n2cc1S(=O)(=O)C(C)(C)C` [Example 141, N-(5-(6-(tert-butylsulfonyl)-7-methoxyimidazo[1,2-a]pyridin-3-yl)-3-fluoro-2-methoxyphenyl)pyridine-3-sulfonamide], the Emax in test [1] was above 80%. For the same compound, the IC50 was below 1 nM in test [1], below 1 nM in test [2] and below 50 nM in test [3].
In the case of `C[C@H](O)COc1cn2ncc(-c3cc(F)c(N)nc3F)c2cc1S(=O)(=O)C(C)(C)C` [Example 45, (S)-1-((3-(6-amino-2,5-difluoropyridin-3-yl)-5-(tert-butylsulfonyl)pyrazolo[1,5-a]pyridin-6-yl)oxy)propan-2-ol], in test [1], the Emax was above 80%. The values for the IC50 in test [1], in test [2] and in test [3] were 1 to 2.5 nM, 1 to 2.5 nM and 50 to 250 nM, respectively.
Take `CC(C)(C)S(=O)(=O)c1cn2c(-c3cnc4[nH]cc(F)c4c3)cnc2cc1OCCO` [Example 220, 2-((6-(tert-butylsulfonyl)-3-(3-fluoro-1H-pyrrolo[2,3-b]pyridin-5-yl)imidazo[1,2-a]pyridin-7-yl)oxy)ethan-1-ol]: the Emax in test [1] is above 80%. In addition, the half-maximal inhibitory concentration (IC50) in test [1] is below 1 nM; in test [2] it was below 1 nM; in test [3], below 50 nM.
As to `COc1cc(-c2cnc3cc(OCCO)c(S(=O)(=O)C(C)(C)C)cn23)cc(NS(=O)(=O)c2cnn(C)c2)c1OC` [Example 245, N-(5-(6-(tert-butylsulfonyl)-7-(2-hydroxyethoxy)imidazo [1,2-a]pyridin-3-yl)-2,3-dimethoxyphenyl)-1-methyl-1H-pyrazole-4-sulfonamide], the Emax in test [1] is above 80%. Besides, the IC50 was below 1 nM in test [1], 1 to 2.5 nM in test [2] and below 50 nM in test [3].
Consider `CC(C)(C)S(=O)(=O)c1cn2c(-c3cnc4[nH]ncc4c3)cnc2cc1OCCO` [Example 222, 2-((6-(tert-butylsulfonyl)-3-(1H-pyrazolo[3,4-b]pyridin-5-yl)imidazo[1,2-a]pyridin-7-yl)oxy)ethan-1-ol], for which the Emax in test [1] was below 30%. Besides, the figures for the IC50 in test [1], in test [2] and in test [3] were above 20 nM, 2.5 to 20 nM and above 1000 nM, respectively.
Consider `OCCCNc1cc(-c2cnc3ccc(C(F)(F)F)cn23)cc(F)n1` [Example 5, 3-((6-fluoro-4-(6-(trifluoromethyl)imidazo[1,2-a]pyridin-3-yl)pyridin-2-yl)amino)propan-1-ol], for which, in test [1], the Emax was below 30%. Moreover, the IC50 in test [1] was above 20 nM; in test [2], above 20 nM; in test [3], 250 to 1000 nM.
